These results are taken from patent US20230293544A1, “METHODS, DOSAGE REGIMENS, AND COMPOSITIONS FOR TREATING HIDRADENITIS” (PFIZER INC., priority 2022, published 2023).

Series [1] has as its system patients with moderate to severe HS. Particulars: cited from earlier work.
Series [2] concerns human patients with moderate to severe hidradenitis suppurativa (HS). Description: Phase 2A double-blind, parallel group study of efficacy vs placebo in hidradenitis suppurativa. The class given is in vivo. The text has this:
This study provided data on efficacy, safety, tolerability, and pharmacokinetics of the therapeutic agents being examined in the oral treatment of moderate to severe HS. […] This included an up-to-6-week Screening Period, a 16-week Dosing Period and a 4-week Follow-up Period. The study enrolled a total of approximately 192 participants (expected to provide approximately 156 completers). Following the screening period, participants who meet eligibility criteria at the baseline visit were randomly assigned to receive 1 of 6 treatments. One oral dose level of each therapeutic agent, one of which was [(1S)-2,2-difluorocyclo-propyl][(1R,5S)-3-{2-[(1-methyl-1H-pyrazol-4-yl)amino]pyrimidin-4-yl}-3,8-diazabicyclo[3.2.1]oct-8-yl]methanone (45 mg QD), or matching placebo in a 3:1 ratio was investigated. For analysis, placebo groups were combined to yield final therapeutic agent:placebo ratio of 1:1:1:1 for each therapeutic agent and pooled placebo. No more than 30% of enrolled participants were inadequate anti-TNF responders. Participants were stratified according to whether they were an inadequate anti-TNF responder or not.
Additionally, no more than 20% of enrolled participants entered the study on a background of concomitant oral antibiotic therapy for treatment of HS; the dosing regimen (dose and frequency) must have been stable for at least 8 weeks (56 days) prior to the baseline (Day 1) visit and remained stable throughout study participation. Antibiotics taken on an “as needed” (PRN) basis were not considered a stable dose. Participants were stratified according to whether they were on a background of concomitant antibiotic therapy or not. The chronic toxicology package for each asset supported the planned study treatment duration of 16 weeks. Hidradenitis suppurative clinical response, the primary endpoint used, is defined as: […]
at least a 50% reduction in the total abscess and inflammatory nodule (AN) count relative to baseline, and no increase in abscess count, and no increase in draining fistula count.
The above Examples were a phase 2A double-blind, parallel group study assessing the efficacy of PF-06700841, a dual inhibitor of human tyrosine kinase 2 (TYK2) and Janus kinase 1 (JAK1), compared to Placebo in human patients with moderate to severe hidradenitis suppurativa (HS).
This was a randomized, double-blind, parallel-group multi-center study that enrolled approximately 192 participants with moderate to severe HS (with approximately 156 completers). Participants were randomized to PF-06700841 (along with two other treatments studied contemporaneously) and matching placebo in a 3:1 ratio. Each randomized participant was followed for a 16-week dosing period and a 4-week follow-up period. For analysis, placebo groups were combined to yield a 1:1:1:1 ratio for each treatment and pooled placebo. No more than 30% participants were enrolled with inadequate anti-TNF response and no more that 20% of the participants were on background antibiotic therapy, and stratified randomization strategy was adopted for this study. Efficacy data from all randomized participants until week 16 are in the scope of this report.
The primary objective of the study was to evaluate the efficacy and safety of PF-06700841 vs placebo in participants with HS. The primary efficacy endpoint was percentage of participants with HiSCR response (50% reduction from baseline in abscess and inflammatory nodule (AN) count, with no increase in abscess and draining fistula count from baseline) at week 16. […]

Series [3] is described as follows: Population PK analysis in the phase 2A HS study. The class given is in vivo, human. Particulars: preliminary population PK analysis. On the procedure:
Blood was collected to obtain the PK samples at pre-dose, Weeks 1, 2, 4, 6, 8, and 16, and at 0.5-, 1-, 2-, and 4-hours post-dose on Week 8. The available data was analyzed using population PK modeling.

The test system of series [4] is human patients with moderate to severe hidradenitis suppurativa (HS). Briefly: Safety and tolerability in the phase 2A HS study (TEAEs, vital signs, laboratory abnormalities). The class given is in vivo. On the procedure: The safety and tolerability of PF-06700841 over time was assessed using incidence of treatment-emergent adverse events (TEAEs), vital signs, incidence of specific clinical laboratory abnormalities including but not limited to hemoglobin, neutrophils, platelets, lymphocytes, lipids, eGFR, liver function tests (LFTs) and CPK.
All participants who received at least one dose of randomized study medication and have a baseline are included in the full analysis set (FAS), the population for the efficacy analysis. The safety analysis set (SAS) includes all participants who received at least one dose of investigational product. The HiSCR response data at week 16 comparing active treatment group and placebo group was to be analyzed using the Cochran Mantel Hanzel (CMH) test with Minimum Risk (MR) weight strategy after treating missing data as non-responders, adjusting for the stratification factor of prior anti-TNF failure status. Due to very small number of participants with concomitant use of antibiotics status at baseline in some subgroups, this was not included as stratum factor in the model. Hochberg's step-up procedure was employed to address any multiplicity arising from the analysis of 3 different treatments within the same study and overall familywise error rate was controlled at 0.1 level. All the continuous secondary endpoints were analyzed using ANCOVA model, where missing observation were imputed using multiple imputation (MI) method.

Values joined by “and” are separate entries in the source; they are usually repeats but may differ in a detail not shown here. Identical values can stand only once.

Consider adalimumab, for which the “Rank-ordered secondary outcomes (lesions, pain, modified Sartorius score) vs placebo” value in series [1] (Week 12, PIONEER II only) is “significantly greater improvement than the placebo groups”. The “Clinical response rate (HiSCR) at Week 12, PIONEER I” value in series [1] (adalimumab weekly, PIONEER I, Week 12) is reported as 41.8%. Further, in series [1] (adalimumab weekly, PIONEER II, Week 12), the “Clinical response rate (HiSCR) at Week 12, PIONEER II” value is given as 58.9%.
On to `Cn1cc(Nc2nccc(N3C[C@H]4CC[C@@H](C3)N4C(=O)[C@@H]3CC3(F)F)n2)cn1` [PF-06700841, [(1S)-2,2-difluorocyclo-propyl][(1R,5S)-3-{2-[(1-methyl-1H-pyrazol-4-yl)amino]pyrimidin-4-yl}-3,8-diazabicyclo[3.2.1]oct-8-yl]methanone], for which, in series [2] (Cox proportional model, vs placebo), the “Hazard ratio for time to first flare” value worked out at 0.4. Further, the “Difference from placebo in Skin Pain NRS30 response rate at week 16” value in series [2] (PGA-Skin Pain NRS at worst, participants with baseline score 3, LOCF) is listed as 6.5%. In addition, the “Probability of flare, Kaplan Meier plot of time to first flare (FIG. 5)” value in series [2] (at 16 weeks, FAS, versus placebo) is “lowest probability of flare at 16 weeks”. The “HiSCR response rate at week 16 among Hurley Stage II participants” value in series [2] (baseline Hurley Stage II, week 16) was found to be 59.4%. Besides, the “HiSCR response rate at week 16 among Hurley Stage III participants” value in series [2] (baseline Hurley Stage III, week 16) is listed as 40%. In addition, the “More participants compared to placebo achieving total AN count of 0, 1 or 2 at week 16” value in series [2] (difference from placebo, week 16) was determined as 15.6%. Also, the “Difference from placebo (δ) in percentage of participants experiencing at least one flare by week 16” value in series [2] (flare = at least 25% increase in AN count with minimum increase of 2 relative to baseline) is on record as −22.3%. Moreover, the “Percentage of Participant Achieving HISCR Response at Week 16, Overall Response n/N (%)” value in series [2] (overall population, FAS, NRI, week 16, 45 mg QD oral) is 51.9% and 27/52 (51.9) %. The “Difference from Placebo in percent change from baseline at week 16 for the IHS4 score” value in series [2] (week 16) was −14.6%. Further, in series [2] (week 16, versus placebo), the “HiSCR response over time, plot (FIG. 2)” value is reported as “highest response at week 16”. For the same compound, the “Exposures in HS compared to healthy or other patient populations” value in series [3] was “expected exposures in HS appear to be achieved”. Besides, the Safety and tolerability result in series [4] (16-week dosing) was “generally safe and well tolerated”. In series [4] (in vivo), the “Deaths or cases of herpes zoster/simplex in the study” value was “no deaths or cases of herpes zoster/simplex”; the “Severity of the majority of treatment-emergent adverse events (TEAEs)” value is “mild and moderate”.
